{"source": "patent US11702427B2", "about": "(priority 2018, dated 2023)", "data": [{"tested_on": "HBsAg", "test": "HBsAg assay: inhibition of HBsAg in HepG2.2.15 cells (CLIA immunoassay of supernatant)", "format": "cell-based, hepatitis B virus (HBV)", "settings": "read-out: sAg EC50; HepG2.2.15 cells; supernatant collected at day 6 after exposure; HBsAg chemiluminescence immunoassay", "method": "Inhibition of HBsAg was determined in HepG2.2.15 cells. Cells were maintained in culture medium containing 10% fetal calf serum, […], Glutamine, penicillin/streptomycin. Cells were seeded in 96-well collagen-coated plate at a density of 30,000 cells/well. Serially diluted compounds were added to cells next day at the final DMSO concentration of 0.5%. Cells were incubated with compounds for 2-3 days, after which medium was removed. Fresh medium containing compounds was added to cells for additional 3-4 days. At day 6 after exposure of compounds, supernatant was collected, the HBsAg immunoassay (microplate-based chemiluminescence immunoassay kits, CLIA, Autobio Diagnosics Co., Zhengzhou, China, Catalog #CL0310-2) was used to determine the level of HBsAg according to manufactory instruction. Dose-response curves were generated and the EC50 value (effective concentrations that achieved 50% inhibitory effect) were determined using XLfit software. In addition, cells can be seeded at a density of 5,000 cells/well for determination of cell viability in the presence and absence of compounds by using CellTiter-Glo reagent (Promega). Tables 1-3 show EC50 values obtained by the HBsAg assay for selected compounds.", "units": {"EC50": "nM"}, "values": [{"smiles": "COCCCOc1cc2c(cc1OC)-c1[nH]c(=O)c(C(=O)O)cc1C(C(C)C)C2", "note": "(single isomer, unassigned) [Example 2, 5-Isopropyl-9-methoxy-8-(3-methoxypropoxy)-2-oxo-1,2,5,6-tetrahydrobenzo[h]quinoline-3-carboxylic acid]", "EC50": 11}, {"smiles": "COCCCOc1cc2c(cc1OC)-c1[nH]c(=O)c(C(=O)O)cc1C(C(C)C)C2", "note": "(single isomer, unassigned) [Example 3, 5-Isopropyl-9-methoxy-8-(3-methoxypropoxy)-2-oxo-1,2,5,6-tetrahydrobenzo[h]quinoline-3-carboxylic acid]", "EC50": 2000}, {"smiles": "COCCCOc1cc2c(cc1OC)-c1[nH]c(=O)c(C(=O)O)cc1C(C)(C(C)C)C2", "note": "(single isomer, unassigned) [Example 7, 5-Isopropyl-9-methoxy-8-(3-methoxypropoxy)-5-methyl-2-oxo-1,6-dihydrobenzo[h]quinoline-3-carboxylic acid]", "EC50": 22}, {"smiles": "COCCCOc1cc2c(cc1OC)-c1[nH]c(=O)c(C(=O)O)cc1C(C)(C(C)C)C2", "note": "(single isomer, unassigned) [Example 8, 5-Isopropyl-9-methoxy-8-(3-methoxypropoxy)-5-methyl-2-oxo-1,6-dihydrobenzo[h]quinoline-3-carboxylic acid]", "EC50": 2500}, {"smiles": "COCCCOc1cc2c(cc1Cl)-c1[nH]c(=O)c(C(=O)O)cc1C(C)(C(C)C)C2", "note": "(single isomer, unassigned) [Example 10, 9-Chloro-5-isopropyl-8-(3-methoxypropoxy)-5-methyl-2-oxo-1,6-dihydrobenzo[h]quinoline-3-carboxylic acid]", "EC50": 25}, {"smiles": "COCCCOc1cc2c(cc1Cl)-c1[nH]c(=O)c(C(=O)O)cc1C(C)(C(C)C)C2", "note": "(single isomer, unassigned) [Example 11, 9-Chloro-5-isopropyl-8-(3-methoxypropoxy)-5-methyl-2-oxo-1,6-dihydrobenzo[h]quinoline-3-carboxylic acid]", "EC50": 250}, {"smiles": "COCCCOc1cc2c(cc1Cl)-c1[nH]c(=O)c(C(=O)O)c(O)c1C(C)(C(C)C)C2", "note": "(single isomer, unassigned) [Example 15, 9-Chloro-4-hydroxy-5-isopropyl-8-(3-methoxypropoxy)-5-methyl-2-oxo-1,2,5,6-tetrahydrobenzo[h]quinoline-3-carboxylic acid]", "EC50": 18}, {"smiles": "COCCCOc1cc2c(cc1Cl)-c1[nH]c(=O)c(C(=O)O)c(O)c1C(C)(C(C)C)C2", "note": "(single isomer, unassigned) [Example 16, 9-Chloro-4-hydroxy-5-isopropyl-8-(3-methoxypropoxy)-5-methyl-2-oxo-1,2,5,6-tetrahydrobenzo[h]quinoline-3-carboxylic acid]", "EC50": 2000}, {"smiles": "COCCCOc1cc2c(nc1Cl)-c1[nH]c(=O)c(C(=O)O)c(O)c1C(C(C)C)C2", "note": "(single isomer, unassigned) [Example 27, 9-Chloro-4-hydroxy-5-isopropyl-8-(3-methoxypropoxy)-2-oxo-1,2,5,6-tetrahydro-1,10-phenanthroline-3-carboxylic acid]", "EC50": 2}, {"smiles": "COCCCOc1cc2c(nc1Cl)-c1[nH]c(=O)c(C(=O)O)c(O)c1C(C(C)C)C2", "note": "(single isomer, unassigned) [Example 28, 9-Chloro-4-hydroxy-5-isopropyl-8-(3-methoxypropoxy)-2-oxo-1,2,5,6-tetrahydro-1,10-phenanthroline-3-carboxylic acid]", "EC50": 43}, {"smiles": "COCCCOc1cc2c(cc1OC)-c1[nH]c(=O)c(C(=O)O)c(O)c1C(C)(C(C)C)C2", "note": "(single isomer, unassigned) [Example 31, 4-Hydroxy-5-isopropyl-9-methoxy-8-(3-methoxypropoxy)-5-methyl-2-oxo-1,2,5,6-tetrahydrobenzo[h]quinoline-3-carboxylic acid]", "EC50": 27}, {"smiles": "COCCCOc1cc2c(cc1OC)-c1[nH]c(=O)c(C(=O)O)c(O)c1C(C)(C(C)C)C2", "note": "(single isomer, unassigned) [Example 32, 4-Hydroxy-5-isopropyl-9-methoxy-8-(3-methoxypropoxy)-5-methyl-2-oxo-1,2,5,6-tetrahydrobenzo[h]quinoline-3-carboxylic acid]", "EC50": 10000}, {"smiles": "COCCCOc1cc2c(nc1OC)-c1[nH]c(=O)c(C(=O)O)c(O)c1C(C(C)C)C2", "note": "(single isomer, unassigned) [Example 34, 4-Hydroxy-5-isopropyl-9-methoxy-8-(3-methoxypropoxy)-2-oxo-1,2,5,6-tetrahydro-1,10-phenanthroline-3-carboxylic acid]", "EC50": 3}, {"smiles": "COCCCOc1cc2c(nc1OC)-c1[nH]c(=O)c(C(=O)O)c(O)c1C(C(C)C)C2", "note": "(single isomer, unassigned) [Example 35, 4-Hydroxy-5-isopropyl-9-methoxy-8-(3-methoxypropoxy)-2-oxo-1,2,5,6-tetrahydro-1,10-phenanthroline-3-carboxylic acid]", "EC50": 150}, {"smiles": "COCCCOc1cc2c(nc1OC)-c1[nH]c(=O)c(C(=O)O)c(O)c1C(C(C)(C)C)C2", "note": "(single isomer, unassigned) [Example 37, 5-(tert-Butyl)-4-hydroxy-9-methoxy-8-(3-methoxypropoxy)-2-oxo-1,2,5,6-tetrahydro-1,10-phenanthroline-3-carboxylic acid]", "EC50": 1}, {"smiles": "COCCCOc1cc2c(nc1OC)-c1[nH]c(=O)c(C(=O)O)c(O)c1C(C(C)(C)C)C2", "note": "(single isomer, unassigned) [Example 38, 5-(tert-Butyl)-4-hydroxy-9-methoxy-8-(3-methoxypropoxy)-2-oxo-1,2,5,6-tetrahydro-1,10-phenanthroline-3-carboxylic acid]", "EC50": 35}, {"smiles": "CCOc1nc2c(cc1OCCCOC)CC(C(C)C)c1c-2[nH]c(=O)c(C(=O)O)c1O", "note": "(single isomer, unassigned) [Example 40, 9-Ethoxy-4-hydroxy-5-isopropyl-8-(3-methoxypropoxy)-2-oxo-1,2,5,6-tetrahydro-1,10-phenanthroline-3-carboxylic acid]", "EC50": 87}, {"smiles": "CCOc1nc2c(cc1OCCCOC)CC(C(C)C)c1c-2[nH]c(=O)c(C(=O)O)c1O", "note": "(single isomer, unassigned) [Example 41, 9-Ethoxy-4-hydroxy-5-isopropyl-8-(3-methoxypropoxy)-2-oxo-1,2,5,6-tetrahydro-1,10-phenanthroline-3-carboxylic acid]", "EC50": 1}, {"smiles": "COCCCOc1cc2c(nc1OC)-c1[nH]c(=O)c(C(=O)O)cc1C(C(C)C)C2", "note": "(single isomer, unassigned) [Example 44, 5-Isopropyl-9-methoxy-8-(3-methoxypropoxy)-2-oxo-1,2,5,6-tetrahydro-1,10-phenanthroline-3-carboxylic acid]", "EC50": 2}, {"smiles": "COCCCOc1cc2c(nc1OC)-c1[nH]c(=O)c(C(=O)O)cc1C(C(C)C)C2", "note": "(single isomer, unassigned) [Example 45, 5-Isopropyl-9-methoxy-8-(3-methoxypropoxy)-2-oxo-1,2,5,6-tetrahydro-1,10-phenanthroline-3-carboxylic acid]", "EC50": 16}, {"smiles": "COCCCOc1cc2c(nc1OC)-c1[nH]c(=O)c(C(=O)O)cc1C(C(C)(C)C)C2", "note": "(single isomer, unassigned) [Example 47, 5-(tert-Butyl)-9-methoxy-8-(3-methoxypropoxy)-2-oxo-1,2,5,6-tetrahydro-1,10-phenanthroline-3-carboxylic acid]", "EC50": 1}, {"smiles": "COCCCOc1cc2c(nc1OC)-c1[nH]c(=O)c(C(=O)O)cc1C(C(C)(C)C)C2", "note": "(single isomer, unassigned) [Example 48, 5-(tert-Butyl)-9-methoxy-8-(3-methoxypropoxy)-2-oxo-1,2,5,6-tetrahydro-1,10-phenanthroline-3-carboxylic acid]", "EC50": 42}, {"smiles": "COCCCOc1cc2c(nc1OC)-c1[nH]c(=O)c(C(N)=O)c(O)c1C(C(C)(C)C)C2", "note": "(single isomer, unassigned) [Example 60, 5-(tert-Butyl)-4-hydroxy-9-methoxy-8-(3-methoxypropoxy)-2-oxo-1,2,5,6-tetrahydro-1,10-phenanthroline-3-carboxamide]", "EC50": 2}, {"smiles": "COCCCOc1cc2c(nc1OC)-c1[nH]c(=O)c(C(N)=O)c(O)c1C(C(C)(C)C)C2", "note": "(single isomer, unassigned) [Example 61, 5-(tert-Butyl)-4-hydroxy-9-methoxy-8-(3-methoxypropoxy)-2-oxo-1,2,5,6-tetrahydro-1,10-phenanthroline-3-carboxamide]", "EC50": 300}, {"smiles": "COCCCOc1cc2c(nc1Cl)-c1[nH]c(=O)c(C(=O)O)c(O)c1C(C(C)C)CO2", "note": "(single isomer, unassigned) [Example 75, 2-Chloro-8-hydroxy-7-isopropyl-3-(3-methoxypropoxy)-10-oxo-6,7,10,11-tetrahydrooxepino[3,2-b:4,5-b′]dipyridine-9-carboxylic acid]", "EC50": 22}, {"smiles": "COCCCOc1cc2c(nc1Cl)-c1[nH]c(=O)c(C(=O)O)c(O)c1C(C(C)C)CO2", "note": "(single isomer, unassigned) [Example 76, 2-Chloro-8-hydroxy-7-isopropyl-3-(3-methoxypropoxy)-10-oxo-6,7,10,11-tetrahydrooxepino[3,2-b:4,5-b′]dipyridine-9-carboxylic acid]", "EC50": 560}, {"smiles": "COCCCOc1cc2c(nc1Cl)-c1[nH]c(=O)c(C(=O)O)c(O)c1C(C(C)(C)C)CO2", "note": "(single isomer, unassigned) [Example 77, 7-(tert-Butyl)-2-chloro-8-hydroxy-3-(3-methoxypropoxy)-10-oxo-6,7,10,11-tetrahydrooxepino[3,2-b:4,5-b′]dipyridine-9-carboxylic acid]", "EC50": 6}]}]}
